Structures are written as SMILES. Counter-ions that a name gives are not always drawn.

We go through four compounds from article PMC3929664, “A Panel of Diverse Assays to Interrogate the Interaction between Glucokinase and Glucokinase Regulatory Protein, Two Vital Proteins in Human Disease” (PLoS ONE, 2014).

In assay [1] the target is T1, GCK enzymatic reaction inhibited by GKRP (recombinant human GCK and GKRP) (Homo sapiens, UniProt P35557+Q14397).
T1 construct: made in house
T1 sequence (P35557 1-465): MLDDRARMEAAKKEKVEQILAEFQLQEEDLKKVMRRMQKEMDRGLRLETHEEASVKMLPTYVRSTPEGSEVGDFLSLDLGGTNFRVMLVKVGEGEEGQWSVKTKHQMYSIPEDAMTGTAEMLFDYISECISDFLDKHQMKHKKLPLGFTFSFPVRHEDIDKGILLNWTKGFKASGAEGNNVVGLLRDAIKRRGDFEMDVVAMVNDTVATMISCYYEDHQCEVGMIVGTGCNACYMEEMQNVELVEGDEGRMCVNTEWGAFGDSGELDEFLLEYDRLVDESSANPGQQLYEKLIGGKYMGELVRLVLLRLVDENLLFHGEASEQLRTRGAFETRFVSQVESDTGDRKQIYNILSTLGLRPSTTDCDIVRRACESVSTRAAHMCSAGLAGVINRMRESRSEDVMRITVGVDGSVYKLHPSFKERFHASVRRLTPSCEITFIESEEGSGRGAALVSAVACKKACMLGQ
T1 sequence (Q14397 1-625): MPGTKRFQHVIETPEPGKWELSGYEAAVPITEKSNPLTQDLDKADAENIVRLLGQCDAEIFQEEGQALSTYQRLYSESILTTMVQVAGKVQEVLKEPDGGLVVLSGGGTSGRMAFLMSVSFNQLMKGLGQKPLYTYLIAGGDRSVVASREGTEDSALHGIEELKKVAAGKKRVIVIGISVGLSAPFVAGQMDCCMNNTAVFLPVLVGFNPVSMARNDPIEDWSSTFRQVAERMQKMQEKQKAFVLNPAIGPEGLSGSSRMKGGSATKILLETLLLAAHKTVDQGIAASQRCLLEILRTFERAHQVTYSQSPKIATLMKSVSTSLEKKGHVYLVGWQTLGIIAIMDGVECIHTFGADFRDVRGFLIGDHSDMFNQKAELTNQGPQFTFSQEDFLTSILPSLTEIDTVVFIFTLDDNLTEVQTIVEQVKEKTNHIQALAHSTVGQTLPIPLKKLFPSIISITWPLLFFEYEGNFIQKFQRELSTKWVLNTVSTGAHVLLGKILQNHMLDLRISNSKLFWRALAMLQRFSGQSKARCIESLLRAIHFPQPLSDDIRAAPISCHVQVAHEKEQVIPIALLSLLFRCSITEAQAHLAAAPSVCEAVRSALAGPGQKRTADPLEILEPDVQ
In words: Diaphorase-coupled kinetic assay (G6PDH/diaphorase dual-coupled). Format: biochemical. Particulars: 10 nM GCK, 10 nM GKRP; for LOPAC1280 screen outcome: 1.5 µM S6P. The protocol: The glucose 6-phosphate dehydrogenase (G6PDH)-coupled kinetic assay described previously was adapted for high-throughput screening by dispensing 2 µl diaphorase-coupled substrate assay buffer (pH 7.1) to give final reaction conditions of 25 mM HEPES, 25 mM KCl, 2 mM MgCl2, 1.4 mM 2-mercaptoethanol, 0.025% BSA, 0.01% Tween-20, 0.15 mM NADP^+, 5 mM glucose, 0.4 mM ATP, 4 U/ml G6PDH, and 0.1 mM resazurin (all Sigma-Aldrich, except ATP which was from Promega) into black 1536-well medium binding plates (Greiner Bio-One) using a BioRAPTR. The reaction was then initiated by addition of 2 µl of diaphorase-coupled enzyme assay buffer containing indicated concentrations of GST-GCK, FLAG-GKRP, and diaphorase (Sigma-Aldrich; final concentration 0.1 mg/ml). Reaction progress was followed by quantitation of the fluorescent product resorufin generated from resazurin with excitation at 525 nm and emission at 590 nm using a ViewLux Microplate Imager. Plates were read every minute for 30 minutes. […] For the LOPAC^1280 library screen, column 1 was all components with DMSO (maximum signal) and column 3 was no GCK with DMSO (minimum signal). These two control columns were used for data normalization. The final HTS protocol is in Table S2, and the data have been deposited in PubChem (AID 743205).
(§1) S6P, F1P, and glucose were dissolved in water; GKAs were dissolved in DMSO.
The G6PDH-coupled kinetic assay system described in [24] was utilized as a basis for developing a high-throughput screening assay to detect G6P generation. Because NADPH (excitation 340 nm, emission 450 nm) has spectral overlap with many fluorescent small molecule compounds, NADPH generation by G6PDH was coupled to NADPH-dependent reduction of resazurin to the fluorescent resorufin (excitation 525 nm, emission 590 nm) catalyzed by diaphorase ( Figure 1B ). Initial assay validation was carried out over a range (0–20 nM) of GCK and GKRP concentrations ( Figure 4A ). Additionally, seven different control mixes of NADP^+ and NADPH were tested in duplicate to generate a standard curve. The total NADP^+/NADPH concentration was 0.15 mM for all controls, with 0, 5, 10, 30, 50, 70, or 100% NADPH. This allowed estimation of the amount of NADP^+ that had been converted by the GCK reaction throughout the time-course ( Figure 4A , dashed lines). The assay is sensitive to very low levels of conversion.
The reaction rate for both 10 nM GCK alone and for 10 nM GCK with 10 nM GKRP was linear for the entire 30-minute time-course. The combination of linearity and the relatively low percent conversion of NADP^+ led us to select t = 10 minutes as providing an appropriate signal window for all future analyses. […] The IC80 value for S6P was calculated as 1.5 µM. Accordingly, this S6P concentration was utilized for all remaining diaphorase-coupled experiments.

The subject of assay [2] is europium-conjugated rabbit anti-mouse IgG antibody / mouse anti-FLAG XL 665 antibody. Briefly: IgG HTRF counter-assay. Particulars: no GCK or GKRP, mean ± SD. The protocol:
as §1
(TIF) Click here for additional data file.
For orientation: TR-FRET usually uses a lanthanide donor and a delayed reading to cut background.

A further assay relates to GCK and GKRP. Further details: method as in PMID 14627435. Particulars: enhancement of the interaction of GCK and GKRP; read-out: EC50, previously reported; cited from earlier work.

For the compound `O=C(O)C1=CC(=C(c2ccc(O)c(C(=O)O)c2)c2ccc(O)c(C(=O)O)c2)C=CC1=O` [ATA, aurintricarboxylic acid], the LOPAC1280 screen outcome in assay [1] is reported as “inhibitors of the GCK-GKRP interaction”. For the same compound, inhibition in assay [2] was half-maximal at 90 ± 30 nM (IC50).
For the compound `O=C(COP(=O)(O)O)[C@@H](O)[C@H](O)[C@H](O)CO` [F1P, fructose 1-phosphate], in assay [1] (t = 10 minutes, mean ± SD), the EC50 (as a rule, the concentration at which the effect is half-maximal) is 4 ± 0.5 µM.
With `O=P(O)(O)OC[C@@H](O)[C@@H](O)[C@H](O)[C@@H](O)CO` [S6P, sorbitol 6-phosphate], in assay [1], the concentration for an effect of 80% (IC80) (usually the concentration needed for an effect of 80%) worked out at 1500 nM. The IC50 – broadly, the point on the concentration scale where inhibition reaches its midpoint – in assay [1] (t = 10 minutes, mean ± SD) was determined as 400 ± 40 nM. Further, the EC50 in the assay on GCK and GKRP was about 500 nM.
For `Cc1ccc(C(=O)Nc2ccc(S(=O)(=O)O)c3cc(S(=O)(=O)O)cc(S(=O)(=O)O)c23)cc1NC(=O)c1cccc(NC(=O)Nc2cccc(C(=O)Nc3cc(C(=O)Nc4ccc(S(=O)(=O)O)c5cc(S(=O)(=O)O)cc(S(=O)(=O)O)c45)ccc3C)c2)c1` [suramin sodium salt], the LOPAC1280 screen outcome in assay [1] is on record as “inhibitors of the GCK-GKRP interaction”. The concentration for half-maximal inhibition (IC50) in assay [2] came to 250 ± 70 nM.
